Source: patent US20240199649A1 (Biosplice Therapeutics, Inc., priority 2022, published 2024)

Biological target: recombinant DYRK1A kinase (Homo sapiens (Human), UniProt Q13627)
Assay: DYRK1A kinase assay (Ser/Thr 18 peptide Z-lyte FRET assay)
Assay type: biochemical
Settings: DYRK1A 0.25 μg/mL, ATP 15 μM, Ser/Thr peptide 18 4 μM; one hour at room temperature; 11-point dose-response, duplicate
Procedure, shortened: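 Z-lyte FRET assay on Ser/Thr 18 peptide, kinase activity read as coumarin/fluorescein emission ratio; compounds incubated 1 h at room temperature, then development reagent 1 h, in duplicate. Phosphorylated and unphosphorylated peptide served as controls; IC50 by non-linear regression of dose-response curves.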

| IC50 [nM] | SMILES |
| --- | --- |
| 2.2 | CNc1nc(NC2CCN(C3CC(F)(F)C3)CC2)nn2ccc(-c3ccc4nc(C)n(CC(F)F)c4n3)c12 [Compound 371, N^2-(1-(3,3-Difluorocyclobutyl)piperidin-4-yl)-5-(3-(2,2-difluoroethyl)-2-methyl-3H-imidazo[4,5-b]pyridin-5-yl)-N^4-methylpyrrolo[2,1-f][1,2,4]triazine-2,4-diamine] |
| 5 | CCN1CC[C@@H](Nc2nc(NC)c3c(-c4ccc5nc(C)n(CC(F)F)c5n4)ccn3n2)[C@@H](F)C1 [Compound 372, 5-(3-(2,2-Difluoroethyl)-2-methyl-3H-imidazo[4,5-b]pyridin-5-yl)-N^2-((3S,4R)-1-ethyl-3-fluoropiperidin-4-yl)-N^4-methylpyrrolo[2,1-f][1,2,4]triazine-2,4-diamine] |
| 3.8 | CCN1CC[C@H](Nc2nc(NC)c3c(-c4ccc5nc(C)n(CC(F)F)c5n4)ccn3n2)[C@H](F)C1 [Compound 373, 5-(3-(2,2-Difluoroethyl)-2-methyl-3H-imidazo[4,5-b]pyridin-5-yl)-N^2-((3R,4S)-1-ethyl-3-fluoropiperidin-4-yl)-N^4-methylpyrrolo[2,1-f][1,2,4]triazine-2,4-diamine] |
| 3.6 | CNc1nc(N[C@@H]2CCN(C3CC3)C[C@@H]2F)nn2ccc(-c3ccc4nc(C)n(CC(F)F)c4n3)c12 [Compound 377, N^2-((3S,4R)-1-Cyclopropyl-3-fluoropiperidin-4-yl)-5-(3-(2,2-difluoroethyl)-2-methyl-3H-imidazo[4,5-b]pyridin-5-yl)-N^4-methylpyrrolo[2,1-f][1,2,4]triazine-2,4-diamine] |
| 4.1 | CNc1nc(N[C@H]2CCN(C3CC3)C[C@H]2F)nn2ccc(-c3ccc4nc(C)n(CC(F)F)c4n3)c12 [Compound 378, N^2-((3R,4S)-1-Cyclopropyl-3-fluoropiperidin-4-yl)-5-(3-(2,2-difluoroethyl)-2-methyl-3H-imidazo[4,5-b]pyridin-5-yl)-N^4-methylpyrrolo[2,1-f][1,2,4]triazine-2,4-diamine] |
| 3.2 | CNc1nc(N[C@@H]2CCN(C3CC(F)(F)C3)C[C@@H]2F)nn2ccc(-c3ccc4nc(C)n(CC(F)F)c4n3)c12 [Compound 380, N^2-((3S,4R)-1-(3,3-Difluorocyclobutyl)-3-fluoropiperidin-4-yl)-5-(3-(2,2-difluoroethyl)-2-methyl-3H-imidazo[4,5-b]pyridin-5-yl)-N^4-methylpyrrolo[2,1-f][1,2,4]triazine-2,4-diamine] |
| 2.2 | CNc1nc(N[C@H]2CCN(C3CC(F)(F)C3)C[C@H]2F)nn2ccc(-c3ccc4nc(C)n(CC(F)F)c4n3)c12 [Compound 381, N^2-((3R,4S)-1-(3,3-Difluorocyclobutyl)-3-fluoropiperidin-4-yl)-5-(3-(2,2-difluoroethyl)-2-methyl-3H-imidazo[4,5-b]pyridin-5-yl)-N^4-methylpyrrolo[2,1-f][1,2,4]triazine-2,4-diamine] |
| 3.3 | [2H]C([2H])([2H])Nc1nc(N[C@@H]2CCN(C)CC2(F)F)nn2ccc(-c3ccc4nc(C)n(CC(F)F)c4n3)c12 [Compound 382, (R)—N^2-(3,3-Difluoro-1-methylpiperidin-4-yl)-5-(3-(2,2-difluoroethyl)-2-methyl-3H-imidazo[4,5-b]pyridin-5-yl)-N^4-(methyl-d3)pyrrolo[2,1-f][1,2,4]triazine-2,4-diamine] |
| 3.5 | CCN1CC[C@@H](Nc2nc(NC)c3c(-c4ccc5nc(C)n(CC(F)F)c5n4)ccn3n2)C(F)(F)C1 [Compound 383, (R)-5-(3-(2,2-Difluoroethyl)-2-methyl-3H-imidazo[4,5-b]pyridin-5-yl)-N^2-(1-ethyl-3,3-difluoropiperidin-4-yl)-N^4-methylpyrrolo[2,1-f][1,2,4]triazine-2,4-diamine] |
| 2 | CCN1CC[C@H](Nc2nc(NC)c3c(-c4ccc5nc(C)n(CC(F)F)c5n4)ccn3n2)C(F)(F)C1 [Compound 384, (S)-5-(3-(2,2-Difluoroethyl)-2-methyl-3H-imidazo[4,5-b]pyridin-5-yl)-N^2-(1-ethyl-3,3-difluoropiperidin-4-yl)-N^4-methylpyrrolo[2,1-f][1,2,4]triazine-2,4-diamine] |
| 4.6 | [2H]C([2H])([2H])Nc1nc(N[C@@H]2CCN(CC)CC2(F)F)nn2ccc(-c3ccc4nc(C)n(CC(F)F)c4n3)c12 [Compound 385, (R)-5-(3-(2,2-Difluoroethyl)-2-methyl-3H-imidazo[4,5-b]pyridin-5-yl)-N^2-(1-ethyl-3,3-difluoropiperidin-4-yl)-N^4-(methyl-d3)pyrrolo[2,1-f][1,2,4]triazine-2,4-diamine] |
| 4.6 | CNc1nc(N[C@@H]2CCN(C3CC3)CC2(F)F)nn2ccc(-c3ccc4nc(C)n(CC(F)F)c4n3)c12 [Compound 386, (R)—N^2-(1-Cyclopropyl-3,3-difluoropiperidin-4-yl)-5-(3-(2,2-difluoroethyl)-2-methyl-3H-imidazo[4,5-b]pyridin-5-yl)-N^4-methylpyrrolo[2,1-f][1,2,4]triazine-2,4-diamine] |
| 12.8 | CNc1nc(N[C@H]2CCN(C3CC3)CC2(F)F)nn2ccc(-c3ccc4nc(C)n(CC(F)F)c4n3)c12 [Compound 387, (S)—N^2-(1-Cyclopropyl-3,3-difluoropiperidin-4-yl)-5-(3-(2,2-difluoroethyl)-2-methyl-3H-imidazo[4,5-b]pyridin-5-yl)-N^4-methylpyrrolo[2,1-f][1,2,4]triazine-2,4-diamine] |
| 4.7 | [2H]C([2H])([2H])Nc1nc(N[C@@H]2CCN(C3COC3)CC2(F)F)nn2ccc(-c3ccc4nc(C)n(CC(F)F)c4n3)c12 [Compound 388, (R)—N^2-(3,3-Difluoro-1-(oxetan-3-yl)piperidin-4-yl)-5-(3-(2,2-difluoroethyl)-2-methyl-3H-imidazo[4,5-b]pyridin-5-yl)-N^4-(methyl-d3)pyrrolo[2,1-f][1,2,4]triazine-2,4-diamine] |
| 1.8 | CNc1nc(NC2CCC3(CC2)OCCO3)nn2ccc(-c3ccc4nc(C)n(CC(F)F)c4n3)c12 [Compound 389, 5-(3-(2,2-Difluoroethyl)-2-methyl-3H-imidazo[4,5-b]pyridin-5-yl)-N^4-methyl-N^2-(1,4-dioxaspiro[4.5]decan-8-yl)pyrrolo[2,1-f][1,2,4]triazine-2,4-diamine] |
| 0.7 | CNc1nc(N[C@H]2CC[C@@](C)(O)CC2)nn2ccc(-c3ccc4nc(C)n(CC(F)(F)F)c4n3)c12 [Compound 441, (1s,4s)-1-Methyl-4-((5-(2-methyl-3-(2,2,2-trifluoroethyl)-3H-imidazo[4,5-b]pyridin-5-yl)-4-(methylamino)pyrrolo[2,1-f][1,2,4]triazin-2-yl)amino)cyclohexan-1-ol] |
| 1.4 | CNc1nc(N[C@H]2CC[C@](C)(O)CC2)nn2ccc(-c3ccc4nnn(CC(F)F)c4n3)c12 [Compound 465, (1r,4r)-4-((5-(3-(2,2-Difluoroethyl)-3H-[1,2,3]triazolo[4,5-b]pyridin-5-yl)-4-(methylamino)pyrrolo[2,1-f][1,2,4]triazin-2-yl)amino)-1-methylcyclohexan-1-ol] |
| 1.3 | CNc1nc(N[C@H]2CCN(C3COC3)C[C@H]2F)nn2ccc(-c3ccc4nnn(CC(F)F)c4n3)c12 [Compound 474, 5-(3-(2,2-Difluoroethyl)-3H-[1,2,3]triazolo[4,5-b]pyridin-5-yl)-N^2-((3R,4S)-3-fluoro-1-(oxetan-3-yl)piperidin-4-yl)-N^4-methylpyrrolo[2,1-f][1,2,4]triazine-2,4-diamine] |
| 0.6 | CNc1nc(N[C@@H]2CCN(C)CC2(F)F)nn2ccc(-c3ccc4nnn(CC(F)F)c4n3)c12 [Compound 479, (R)—N^2-(3,3-Difluoro-1-methylpiperidin-4-yl)-5-(3-(2,2-difluoroethyl)-3H-[1,2,3]triazolo[4,5-b]pyridin-5-yl)-N4-methylpyrrolo[2,1-f][1,2,4]triazine-2,4-diamine] |
| 1.3 | CNc1nc(N[C@@H]2CCN(C3COC3)CC2(F)F)nn2ccc(-c3ccc4nnn(CC(F)F)c4n3)c12 [Compound 480, (R)—N^2-(3,3-Difluoro-1-(oxetan-3-yl)piperidin-4-yl)-5-(3-(2,2-difluoroethyl)-3H-[1,2,3]triazolo[4,5-b]pyridin-5-yl)-N^4-methylpyrrolo[2,1-f][1,2,4]triazine-2,4-diamine] |
| 3.1 | CCNc1nc(N[C@@H]2CCNCC2(F)F)nn2ccc(-c3ccc4nc(C)n(CC(F)F)c4n3)c12 [Compound 482, (R)-5-(3-(2,2-Difluoroethyl)-2-methyl-3H-imidazo[4,5-b]pyridin-5-yl)-N^2-(3,3-difluoropiperidin-4-yl)-N^4-ethylpyrrolo[2,1-f][1,2,4]triazine-2,4-diamine] |
| 3.6 | CCNc1nc(N[C@@H]2CCN(C)CC2(F)F)nn2ccc(-c3ccc4nc(C)n(CC(F)F)c4n3)c12 [Compound 483, (R)—N^2-(3,3-difluoro-1-methylpiperidin-4-yl)-5-(3-(2,2-difluoroethyl)-2-methyl-3H-imidazo[4,5-b]pyridin-5-yl)-N^4-ethylpyrrolo[2,1-f][1,2,4]triazine-2,4-diamine] |

| SMILES | IC50 [nM] |
| --- | --- |
| CNc1nc(N[C@@H]2CCN(CCF)C[C@@H]2F)nn2ccc(-c3ccc4nc(C)n(CC(F)F)c4n3)c12 [Compound 374, 5-(3-(2,2-Difluoroethyl)-2-methyl-3H-imidazo[4,5-b]pyridin-5-yl)-N^2-((3S,4R)-3-fluoro-1-(2-fluoroethyl)piperidin-4-yl)-N^4-methylpyrrolo[2,1-f][1,2,4]triazine-2,4-diamine] | 2.2 |
| CNc1nc(N[C@H]2CCN(CCF)C[C@H]2F)nn2ccc(-c3ccc4nc(C)n(CC(F)F)c4n3)c12 [Compound 375, 5-(3-(2,2-Difluoroethyl)-2-methyl-3H-imidazo[4,5-b]pyridin-5-yl)-N^2-((3R,4S)-3-fluoro-1-(2-fluoroethyl)piperidin-4-yl)-N^4-methylpyrrolo[2,1-f][1,2,4]triazine-2,4-diamine] | 0.6 |
